# Source: US7998937B2, “Flavonoid compound having an antiviral activity” (Korea Research Institute of Bioscience and Biotechnology, priority 2005, dated 2011)
# Key:
# [1] = system: Vero cells; assay: Cytotoxicity (CC50) in Vero cells; settings: 0.1-100 μg/mL, 48 hours
# [2] = system: mice; assay: Toxicity test in mice; type: in vivo; settings: 10 g/kg, dissolved in DMSO and diluted with water, observed for 7 days
# Description: Toxicity test was performed as follows for the quercetin-7-rhamnoside of the present invention.
# Quercetin-7-rhamnoside dissolved in dimethyl sulfoxide (DMSO) and diluted with water was administered to mice (10 per each group) at a dosage of 10 g/kg.
# [3] = system: porcine epidemic diarrhea virus (PEDV); assay: Antiviral activity against PEDV in Vero cells (SRB staining); settings: PEDV in Vero cells, maximum dosage 100 μg/mL, 48 hours
# [4] = system: influenza type A (H1N1/WS/33) virus; assay: Antiviral activity against influenza type A virus in MDCK cells (SRB); type: cell-based, influenza virus type A (H1N1; WS/33 strain); settings: 10 μg/mL, influenza A H1N1/WS/33 in MDCK cells, 48 hours, repeated 3 times
# Description: In order to evaluate the inhibitory activity of quercetin-7-rhamnoside against influenza virus, the following in vitro test was performed using MDCK cells derived from dog kidney.
# Inhibitory activity of quercetin-7-rhamnoside against viral proliferation was measured by the method proposed by Kwon Dur-Han, et al. (Korean Patent Application No. 2004-101863). Inhibitory activity against influenza virus type A (H1N1; WS/33 strain) was measured. MDCK cells were cultured on a 96-well microplate until the bottom of each well was completely covered with cells. Remaining culture medium was completely removed and each well was washed twice with a phosphate buffer. Each of quercetin-7-rhamnoside; conventional antiviral agents purchased from Sigma-ribavirin and amantadine; oseltamivir (trade name: Tamiflu) purchased from Roche; and zanamivir (trade name: Relenza) purchased from Glaxo Wellcome; dissolved in dimethyl sulfoxide was added to each well to a final concentration of 10 μg/mL. […] After adding 100 μL of 70% acetone, each well was kept at −20° C. for 1 hour. After drying in a desiccator, 100 μL of 0.4% (w/v) SRB (sulforhodamine B) solution dissolved in 1% (v/v) acetic acid was added. After 30 minutes' staining, the SRB staining solution not bound to the cells was washed off with 1% (v/v) acetic acid for 4 times. After drying, 100 μL of 10 mM Tris solution (pH 10.5) was added to each well to dissolve the stained substance at the bottom of the well. Light absorbance was measured at 562 nm to evaluate the antiviral activity. As control group, viability of cells treated with DMSO only was compared with those treated with both DMSO and virus. Each test was repeated 3 times.
# [5] = system: ST cells; assay: Cytotoxicity (CC50) in ST cells; settings: 0.1-100 μg/mL, 48 hours
# [6] = system: porcine transmissible gastroenteritis virus (TGEV); assay: Anti-coronavirus inhibitory activity against TGEV in ST cells; type: cell-based; settings: 48 hours
# Description: (§1) Antiviral activity of quercetin-7-rhamnoside against porcine transmissible gastroenteritis virus (TGEV) and porcine respiratory coronavirus (PRCV), another kind of coronaviruses, was evaluated. ST cells were cultured on a 96-well microplate until the bottom of each well was completely covered with cells. Remaining culture medium was completely removed and each well was washed twice with a phosphate buffer. TGEV or PRCV solution adjusted to a concentration of TCID50 was added to each well. Each of quercetin-7-rhamnoside, conventional antiviral agents purchased from Sigma-ribavirin, lamivudine, azidovudine, acycloguanine and glycyrrhizhin-dissolved in dimethyl sulfoxide was added to each well to a final concentration of 0.1-100 μg/mL. […] Similarly to the aforesaid evaluation of antiviral inhibitory activity against PEDV, c ells treated with DMSO only and those treated with both DMSO and TGEV or both DMSO and PRCV were used as control groups.
# [7] = system: porcine respiratory coronavirus (PRCV); assay: Anti-coronavirus inhibitory activity against PRCV in ST cells; type: cell-based; settings: 48 hours
# Description: as §1
# [8] = system: influenza type B (B/Lee/40) virus; assay: Inhibitory activity against influenza type B virus in MDCK cells (SRB); type: cell-based; settings: 10 μg/mL, influenza B/Lee/40 in MDCK cells, 48 hours, repeated 3 times
# [9] = system: rotavirus (strain: OSU); assay: Inhibitory activity against rotavirus in MA104 cells (SRB); type: cell-based; settings: 10 μg/mL, rotavirus OSU in MA104 cells, 48 hours, repeated 2 times
# Description: (§2) In order to evaluate the inhibitory activity of quercetin-7-rhamnoside against rota virus, the following in vitro test was performed using MA014 cells derived from pig kidney. Inhibitory activity of quercetin-7-rhamnoside against viral proliferation was measured by the method proposed by Kwon Dur-Han, et al. (Korean Patent Publication No. 2004-101863). Inhibitory activity against rotavirus (strain: OSU) was measured. MA104 cells were cultured on a 96-well microplate until the bottom of each well was completely covered with cells. Remaining culture medium was removed and each well was washed twice with a phosphate buffer. A rota virus solution adjusted to a concentration of TCID 50 was added to each well. […] After 48 hours, the MA104 cells were observed under a microscope. After adding 100 μL of 70% acetone, each well was kept at −20° C. for 1 hour. After drying in a desiccator, 100 μL of 0.4% (w/v) SRB (sulforhodamine B) solution dissolved in 1% (v/v) acetic acid was added. After 30 minutes of staining, the SRB solution not bound to the cells was washed off with 1% (v/v) acetic acid for 4 times. After drying, 100 μL of 10 mM Tris solution (pH 10.5) was added to each well to dissolve the stained substance at the bottom of the well. Light absorbance was measured at 562 nm to evaluate the antiviral activity. As control group, viability of cells treated with DMSO only was compared with those treated with both DMSO and virus. Each test was repeated for 2 times.
# [10] = system: rhinovirus (strain: rhinovirus 2); assay: Inhibitory activity against rhinovirus in HeLa cells (SRB); type: cell-based; settings: 10 μg/mL, rhinovirus 2 in HeLa cells, 48 hours, repeated 3 times
# Description: as §2, with “against rhino” for “against rota”, “using HeLa, one of human cervical cancer cell lines, cells.” for “using MA014 cells derived from pig kidney.”, “2004-101863). […] HeLa” for “2004-101863). Inhibitory activity against rotavirus (strain: OSU) was measured. MA104”, “A rhino” for “A rota”, “the HeLa” for “the MA104”, “for 3” for “for 2”
smiles,measurement,setting,value
"C[C@@H]1O[C@@H](Oc2cc(O)c3c(=O)c(O)c(-c4ccc(O)c(O)c4)oc3c2)[C@H](O)[C@H](O)[C@H]1O [Quercetin-7-rhamnoside, quercetin-7-rhamnoside]",CC50 (concentration required for 50% cytotoxicity),[1],> 100 µg/mL
same,deaths after administration,[2],none of them were found dead
same,IC50 (concentration required for 50% inhibition of viruses),[3],(0.014 μg/mL)]
same,Inhibitory activity (%) (Mean ± S.D.),[4],66.03%
same,CC50,[5],> 100 µg/mL
same,IC50,[6],(63.3 μg/mL)]
same,IC50,[7],(59.8 μg/mL)]
same,Inhibitory activity (%) (Mean ± S.D.),[8],92.66%
same,Inhibitory activity (%) (Mean ± S.D.),[9],77.37%
same,Inhibitory activity (%) (Mean ± S.D.),[10],77.89%
